Experimental data: patent US6852317B2 (priority 2000, dated 2005)

Tested on: Alternaria

Compound: Nc1nc2cccc(-c3ccc(CN4CCS(=O)(=O)CC4)cc3)n2n1 [metabolite]
- activity after heating (heating to 80 degrees C. for one hour): not lost
- activity after treatment with acid (treated with acid): lost
- score against Alternaria after acid treatment (treated with acid, score before treatment 0, 0-5 scale): 5
- activity after treatment with base (treated with base): not lost
